Measured values reported in US7115544B2, “Plant growth regulators for cotton hervest” (Sumitomo Chemical Company, Limited, priority 2001, dated 2006).

How the values were obtained:
cotton plants = assay: Field test on cotton plants at boll opening: defoliation ratio and boll opening after foliar spray; assay type: in vivo; conditions: for Defoliation ratio (%) Rep. 1 / Defoliation ratio (%) Rep. 2 / Defoliation ratio (%) Rep. 3: 20 g/ha, emulsifiable concentrate diluted with water containing 1% (v/v) COC, day 14 after the treatment; for Defoliation ratio (%) Rep. 1: replication 1 about 60% of open bolls; for Defoliation ratio (%) Rep. 2: replication 2 about 60 to 70% of open bolls; for Defoliation ratio (%) Rep. 3: replication 3 80 to 85% of open bolls; for cotton boll opening: field test, sprayed at the time of cotton boll opening
Experimental: The test results were evaluated according to the following criteria: Defoliation ratio (%)=(the number of dropped leaves/the total number of leaves examined)×100
Cotton seeds were planted and grown in the field. At the time of cotton boll opening, 2.5 parts of each of compounds […], 10 parts of Sorpol 3890 (Toho Chemical Industry Co., Ltd.), and 87.5 parts of SOLVESSO 200 (Exxon Mobile Chemical Company) were well mixed to give an emulsifiable concentrate for each compound, which was then diluted at a prescribed dose with water containing 1% (v/v) crop oil concentrate (COC), and the dilution was uniformly sprayed to the plants. Treatments were carried out with three replications. Replication 1 had about 60% of open bolls; replication 2 had about 60 to 70% of open bolls; replication 3 had 80 to 85% of open boils. The treated fields are each 4 m×6.4 m in area, and the cotton plants on day 14 after the treatment were examined for the defoliation ratio.

| Structure (SMILES) | Defoliation ratio (%) Rep. 1 (cotton plants) [%] | Defoliation ratio (%) Rep. 2 (cotton plants) [%] | Defoliation ratio (%) Rep. 3 (cotton plants) [%] | cotton boll opening (cotton plants) | melting point [°C] |
| --- | --- | --- | --- | --- | --- |
| COC(=O)COc1ccccc1Oc1cc(-n2c(=O)cc(C(F)(F)F)n(C)c2=O)c(F)cc1Cl [Compound a-5, methyl [2-{2-chloro-4-fluoro-5-[3-methyl-2,6-dioxo-4-(trifluoromethyl)-1,2,3,6-tetrahydropyrimidin-1-yl]phenoxy}phenoxy]acetate] | 85 | 90 | 82 | stimulated cotton boll opening |  |
| COC(=O)COc1ncccc1Oc1cc(-n2c(=O)cc(C(F)(F)F)n(C)c2=O)c(F)cc1Cl [Compound a-6, methyl [3-{2-chloro-4-fluoro-5-[3-methyl-2,6-dioxo-4-(trifluoromethyl)-1,2,3,6-tetrahydropyrimidin-1-yl]phenoxy}-2-pyridyloxy]acetate] | 80 | 75 | 85 | stimulated cotton boll opening |  |
| Cn1c(C(F)(F)F)cc(=O)n(-c2cc(Oc3ccccc3OCC(=O)OC(C)(C)C)c(Cl)cc2F)c1=O [Compound a-121, t-butyl [2-{2-chloro-4-fluoro-5-[3-methyl-2,6-dioxo-4-(trifluoromethyl)-1,2,3,6-tetrahydropyrimidin-1-yl]phenoxy}phenoxy]acetate] |  |  |  |  | 55.6 |
